{
  "source": "paper PMC11864979",
  "about": "“First-in-class ultralong-target-residence-time p38α inhibitors as a mitosis-targeted therapy for colorectal cancer” (Nature Cancer, 2025)",
  "assay_in_all_cases": "selectivity profiling in a panel of 340 wild-type kinases (Reaction Biology Europe)",
  "assay_type_in_all_cases": "binding",
  "key": {"340 wild-type kinases [1]": {"molecular_target": "T1, 340 wild-type kinases (Homo sapiens, UniProt P15056)", "T1 construct": "purchased Reaction Biology Europe"}, "340 wild-type kinases [2]": {"molecular_target": "T2, 340 wild-type kinases (Homo sapiens, UniProt O43318)", "T2 construct": "purchased Reaction Biology Europe", "T2 sequence (O43318 1-606)": "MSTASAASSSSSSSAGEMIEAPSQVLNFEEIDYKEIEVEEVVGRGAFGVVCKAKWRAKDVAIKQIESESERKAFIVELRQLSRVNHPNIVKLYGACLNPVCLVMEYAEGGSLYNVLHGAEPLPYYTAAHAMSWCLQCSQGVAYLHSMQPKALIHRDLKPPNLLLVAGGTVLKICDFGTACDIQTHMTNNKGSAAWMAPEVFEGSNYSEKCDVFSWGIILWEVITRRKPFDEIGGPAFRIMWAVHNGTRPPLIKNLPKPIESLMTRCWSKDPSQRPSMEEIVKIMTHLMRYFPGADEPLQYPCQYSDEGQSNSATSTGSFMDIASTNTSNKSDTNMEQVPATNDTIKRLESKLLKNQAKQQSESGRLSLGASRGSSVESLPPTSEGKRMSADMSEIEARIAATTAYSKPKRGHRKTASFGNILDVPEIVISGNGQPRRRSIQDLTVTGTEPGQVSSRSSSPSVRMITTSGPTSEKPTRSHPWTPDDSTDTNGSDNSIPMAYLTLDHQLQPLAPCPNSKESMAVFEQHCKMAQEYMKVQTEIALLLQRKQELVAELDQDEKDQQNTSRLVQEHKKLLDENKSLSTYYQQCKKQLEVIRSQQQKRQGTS"}, "340 wild-type kinases [3]": {"molecular_target": "T3, 340 wild-type kinases (Homo sapiens, UniProt P07949)", "T3 construct": "purchased Reaction Biology Europe", "T3 sequence (P07949 29-1114)": "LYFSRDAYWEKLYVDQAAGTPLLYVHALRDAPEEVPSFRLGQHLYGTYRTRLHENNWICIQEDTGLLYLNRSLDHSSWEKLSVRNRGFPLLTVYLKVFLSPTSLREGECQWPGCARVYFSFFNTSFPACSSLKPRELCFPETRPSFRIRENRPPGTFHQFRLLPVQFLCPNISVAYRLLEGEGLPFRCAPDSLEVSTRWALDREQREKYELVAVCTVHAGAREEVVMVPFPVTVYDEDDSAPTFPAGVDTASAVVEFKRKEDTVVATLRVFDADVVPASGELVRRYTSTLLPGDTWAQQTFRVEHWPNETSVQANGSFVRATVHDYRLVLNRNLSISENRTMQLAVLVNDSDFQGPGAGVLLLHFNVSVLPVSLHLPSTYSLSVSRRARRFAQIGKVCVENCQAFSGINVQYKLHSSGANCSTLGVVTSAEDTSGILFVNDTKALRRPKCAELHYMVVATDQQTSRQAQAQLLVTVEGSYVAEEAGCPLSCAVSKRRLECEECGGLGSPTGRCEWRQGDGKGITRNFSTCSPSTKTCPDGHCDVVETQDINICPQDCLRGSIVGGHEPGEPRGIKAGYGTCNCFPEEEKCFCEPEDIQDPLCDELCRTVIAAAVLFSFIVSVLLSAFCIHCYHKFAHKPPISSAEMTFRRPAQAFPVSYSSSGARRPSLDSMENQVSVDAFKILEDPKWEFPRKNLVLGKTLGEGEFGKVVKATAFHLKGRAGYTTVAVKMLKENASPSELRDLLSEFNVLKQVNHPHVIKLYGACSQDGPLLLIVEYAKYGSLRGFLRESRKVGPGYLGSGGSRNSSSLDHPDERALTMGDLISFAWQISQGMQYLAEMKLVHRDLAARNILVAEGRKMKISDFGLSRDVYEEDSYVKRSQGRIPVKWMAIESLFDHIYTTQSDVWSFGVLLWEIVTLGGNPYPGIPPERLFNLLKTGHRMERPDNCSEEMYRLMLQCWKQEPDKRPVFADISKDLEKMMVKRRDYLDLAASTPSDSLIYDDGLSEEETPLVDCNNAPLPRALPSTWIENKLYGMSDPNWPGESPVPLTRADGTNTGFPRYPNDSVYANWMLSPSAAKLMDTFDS"}, "340 wild-type kinases [4]": {"molecular_target": "T4, 340 wild-type kinases (Homo sapiens, UniProt P49760)", "T4 construct": "purchased Reaction Biology Europe", "T4 sequence (P49760 whole entry)": "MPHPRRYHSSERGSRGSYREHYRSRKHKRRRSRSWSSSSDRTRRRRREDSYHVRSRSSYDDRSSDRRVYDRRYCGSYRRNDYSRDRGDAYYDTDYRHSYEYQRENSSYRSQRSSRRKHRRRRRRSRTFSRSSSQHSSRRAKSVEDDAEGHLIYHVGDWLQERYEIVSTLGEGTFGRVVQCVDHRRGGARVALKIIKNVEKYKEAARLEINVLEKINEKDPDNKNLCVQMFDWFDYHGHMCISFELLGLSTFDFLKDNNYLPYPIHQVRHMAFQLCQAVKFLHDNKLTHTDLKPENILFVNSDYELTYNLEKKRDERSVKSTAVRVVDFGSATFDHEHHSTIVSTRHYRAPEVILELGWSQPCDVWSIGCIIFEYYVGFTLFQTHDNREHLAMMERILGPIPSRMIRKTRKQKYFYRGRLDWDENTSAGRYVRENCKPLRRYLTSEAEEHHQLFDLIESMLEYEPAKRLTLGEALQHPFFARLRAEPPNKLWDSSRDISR"}, "340 wild-type kinases [5]": {"molecular_target": "T5, 340 wild-type kinases (Homo sapiens, UniProt Q15375)", "T5 construct": "purchased Reaction Biology Europe", "T5 sequence (Q15375 28-998)": "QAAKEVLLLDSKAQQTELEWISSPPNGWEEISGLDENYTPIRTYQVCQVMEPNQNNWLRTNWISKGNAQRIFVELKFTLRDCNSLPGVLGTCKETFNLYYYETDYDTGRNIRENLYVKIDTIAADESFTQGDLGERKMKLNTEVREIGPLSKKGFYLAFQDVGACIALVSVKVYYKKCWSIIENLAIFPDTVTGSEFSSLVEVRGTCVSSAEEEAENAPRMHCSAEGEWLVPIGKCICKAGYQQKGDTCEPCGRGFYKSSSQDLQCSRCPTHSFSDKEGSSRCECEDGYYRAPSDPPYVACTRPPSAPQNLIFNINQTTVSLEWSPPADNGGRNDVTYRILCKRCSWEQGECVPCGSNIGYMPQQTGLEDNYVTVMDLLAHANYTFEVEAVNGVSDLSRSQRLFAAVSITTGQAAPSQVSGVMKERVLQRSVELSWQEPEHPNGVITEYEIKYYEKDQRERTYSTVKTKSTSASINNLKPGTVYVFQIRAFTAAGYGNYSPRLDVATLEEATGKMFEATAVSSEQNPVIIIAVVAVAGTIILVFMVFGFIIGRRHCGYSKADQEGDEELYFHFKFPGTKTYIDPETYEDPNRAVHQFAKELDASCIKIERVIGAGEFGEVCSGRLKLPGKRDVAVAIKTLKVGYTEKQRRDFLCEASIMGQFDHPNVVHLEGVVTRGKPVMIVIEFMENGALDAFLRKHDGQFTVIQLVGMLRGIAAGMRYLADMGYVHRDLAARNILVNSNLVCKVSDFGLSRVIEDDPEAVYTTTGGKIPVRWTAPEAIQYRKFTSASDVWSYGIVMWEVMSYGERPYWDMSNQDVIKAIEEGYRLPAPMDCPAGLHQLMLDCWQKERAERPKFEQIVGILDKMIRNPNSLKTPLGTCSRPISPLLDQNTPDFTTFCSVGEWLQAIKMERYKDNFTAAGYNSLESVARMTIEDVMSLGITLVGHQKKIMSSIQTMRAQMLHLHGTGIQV"}, "340 wild-type kinases [6]": {"molecular_target": "T6, 340 wild-type kinases (Homo sapiens, UniProt P06213)", "T6 construct": "purchased Reaction Biology Europe", "T6 sequence (P06213 28-1382)": "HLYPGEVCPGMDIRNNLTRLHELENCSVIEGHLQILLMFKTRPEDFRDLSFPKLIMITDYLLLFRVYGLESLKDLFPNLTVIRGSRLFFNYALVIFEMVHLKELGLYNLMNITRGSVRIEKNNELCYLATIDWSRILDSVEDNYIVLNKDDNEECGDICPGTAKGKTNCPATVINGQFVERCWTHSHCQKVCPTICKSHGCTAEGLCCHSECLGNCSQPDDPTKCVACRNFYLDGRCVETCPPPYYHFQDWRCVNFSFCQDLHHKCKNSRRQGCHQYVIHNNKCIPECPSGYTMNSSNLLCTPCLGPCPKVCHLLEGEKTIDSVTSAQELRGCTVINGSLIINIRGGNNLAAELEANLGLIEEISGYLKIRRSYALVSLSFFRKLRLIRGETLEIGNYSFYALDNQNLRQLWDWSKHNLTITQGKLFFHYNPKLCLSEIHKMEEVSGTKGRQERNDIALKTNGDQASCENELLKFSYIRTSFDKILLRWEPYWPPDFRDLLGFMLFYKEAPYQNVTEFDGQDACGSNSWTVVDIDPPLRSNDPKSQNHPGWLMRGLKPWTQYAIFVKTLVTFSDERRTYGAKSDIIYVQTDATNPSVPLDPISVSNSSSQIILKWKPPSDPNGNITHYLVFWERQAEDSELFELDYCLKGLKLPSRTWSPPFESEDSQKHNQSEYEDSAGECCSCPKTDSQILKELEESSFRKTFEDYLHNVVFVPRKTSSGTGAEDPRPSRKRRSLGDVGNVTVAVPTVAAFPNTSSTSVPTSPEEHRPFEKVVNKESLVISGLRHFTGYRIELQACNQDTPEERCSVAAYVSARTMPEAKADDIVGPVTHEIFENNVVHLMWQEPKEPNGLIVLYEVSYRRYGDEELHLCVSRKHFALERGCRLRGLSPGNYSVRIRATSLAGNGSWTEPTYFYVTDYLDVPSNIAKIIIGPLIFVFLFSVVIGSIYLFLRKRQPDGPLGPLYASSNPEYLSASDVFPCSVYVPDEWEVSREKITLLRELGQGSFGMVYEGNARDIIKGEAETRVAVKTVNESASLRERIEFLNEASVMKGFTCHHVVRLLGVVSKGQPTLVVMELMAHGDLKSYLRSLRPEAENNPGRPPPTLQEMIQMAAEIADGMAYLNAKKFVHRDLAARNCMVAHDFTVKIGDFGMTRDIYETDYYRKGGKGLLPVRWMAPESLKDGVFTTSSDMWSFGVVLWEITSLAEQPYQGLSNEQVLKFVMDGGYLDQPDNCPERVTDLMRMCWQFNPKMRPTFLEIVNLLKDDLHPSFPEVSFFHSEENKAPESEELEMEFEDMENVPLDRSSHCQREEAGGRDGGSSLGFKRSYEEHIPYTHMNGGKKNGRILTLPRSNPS"}, "340 wild-type kinases [7]": {"molecular_target": "T7, 340 wild-type kinases (Homo sapiens, UniProt Q96BR1)", "T7 construct": "purchased Reaction Biology Europe", "T7 sequence (Q96BR1 1-496)": "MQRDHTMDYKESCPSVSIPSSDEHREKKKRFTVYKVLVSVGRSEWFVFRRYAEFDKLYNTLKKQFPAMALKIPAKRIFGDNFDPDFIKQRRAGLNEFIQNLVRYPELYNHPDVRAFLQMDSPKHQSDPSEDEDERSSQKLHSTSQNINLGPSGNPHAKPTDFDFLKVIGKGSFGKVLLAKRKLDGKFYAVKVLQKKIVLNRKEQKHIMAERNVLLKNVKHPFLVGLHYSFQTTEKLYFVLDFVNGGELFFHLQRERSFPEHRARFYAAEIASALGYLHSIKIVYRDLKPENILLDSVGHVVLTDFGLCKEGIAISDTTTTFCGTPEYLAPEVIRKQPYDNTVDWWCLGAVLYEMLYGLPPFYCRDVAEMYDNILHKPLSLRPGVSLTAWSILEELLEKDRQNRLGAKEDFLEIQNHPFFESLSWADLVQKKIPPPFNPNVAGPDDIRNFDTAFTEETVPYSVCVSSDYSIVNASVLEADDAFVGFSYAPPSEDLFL"}, "340 wild-type kinases [8]": {"molecular_target": "T8, 340 wild-type kinases (Homo sapiens, UniProt Q9Y2U5)", "T8 construct": "purchased Reaction Biology Europe", "T8 sequence (Q9Y2U5 1-619)": "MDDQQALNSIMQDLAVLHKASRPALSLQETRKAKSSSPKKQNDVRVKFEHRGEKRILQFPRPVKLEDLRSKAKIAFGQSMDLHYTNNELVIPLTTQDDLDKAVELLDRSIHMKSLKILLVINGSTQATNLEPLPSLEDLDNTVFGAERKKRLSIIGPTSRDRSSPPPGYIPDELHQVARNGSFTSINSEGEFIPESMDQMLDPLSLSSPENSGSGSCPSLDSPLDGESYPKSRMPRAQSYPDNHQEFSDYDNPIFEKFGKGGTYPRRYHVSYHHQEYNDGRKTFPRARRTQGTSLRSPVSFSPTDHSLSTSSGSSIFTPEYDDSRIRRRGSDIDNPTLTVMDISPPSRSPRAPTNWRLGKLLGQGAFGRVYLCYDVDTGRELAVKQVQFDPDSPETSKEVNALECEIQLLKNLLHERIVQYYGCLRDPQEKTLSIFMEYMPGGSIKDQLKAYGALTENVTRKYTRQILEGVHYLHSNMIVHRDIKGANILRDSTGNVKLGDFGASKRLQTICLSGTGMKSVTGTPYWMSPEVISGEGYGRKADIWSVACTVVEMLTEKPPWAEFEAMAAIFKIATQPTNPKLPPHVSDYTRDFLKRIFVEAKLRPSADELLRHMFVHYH"}, "340 wild-type kinases [9]": {"molecular_target": "T9, 340 wild-type kinases (Homo sapiens, UniProt O43353)", "T9 construct": "purchased Reaction Biology Europe", "T9 sequence (O43353 whole entry)": "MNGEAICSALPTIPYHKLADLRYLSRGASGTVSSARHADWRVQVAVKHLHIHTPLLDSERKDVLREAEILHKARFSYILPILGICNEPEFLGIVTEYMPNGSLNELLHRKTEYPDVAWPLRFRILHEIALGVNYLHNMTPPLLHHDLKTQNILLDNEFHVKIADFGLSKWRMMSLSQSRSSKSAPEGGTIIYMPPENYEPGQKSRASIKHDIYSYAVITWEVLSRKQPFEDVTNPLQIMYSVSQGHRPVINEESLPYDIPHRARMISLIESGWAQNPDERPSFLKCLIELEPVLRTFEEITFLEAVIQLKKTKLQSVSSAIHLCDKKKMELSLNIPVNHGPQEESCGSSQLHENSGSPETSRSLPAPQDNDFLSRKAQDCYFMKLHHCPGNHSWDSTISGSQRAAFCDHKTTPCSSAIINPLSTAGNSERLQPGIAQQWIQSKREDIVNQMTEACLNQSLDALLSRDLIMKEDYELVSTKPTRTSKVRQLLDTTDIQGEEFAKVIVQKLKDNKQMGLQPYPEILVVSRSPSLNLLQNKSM"}, "340 wild-type kinases [10]": {"molecular_target": "T10, 340 wild-type kinases (Homo sapiens, UniProt P50613)", "T10 construct": "purchased Reaction Biology Europe", "T10 sequence (P50613 whole entry)": "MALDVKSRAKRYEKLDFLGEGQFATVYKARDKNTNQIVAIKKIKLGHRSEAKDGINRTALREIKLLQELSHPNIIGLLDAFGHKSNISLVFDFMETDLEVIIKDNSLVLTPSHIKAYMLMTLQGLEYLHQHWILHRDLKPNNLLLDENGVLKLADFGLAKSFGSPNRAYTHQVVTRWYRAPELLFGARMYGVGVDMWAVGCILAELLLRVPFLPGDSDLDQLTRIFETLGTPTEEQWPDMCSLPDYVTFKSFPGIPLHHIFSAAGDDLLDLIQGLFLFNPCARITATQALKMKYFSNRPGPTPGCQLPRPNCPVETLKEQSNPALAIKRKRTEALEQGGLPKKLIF"}},
  "note": "Where two headings read alike, the source gives them in different places.",
  "data": [
    {"smiles": "CNC(=O)c1ccc2c(c1)C(=O)c1ccc(Nc3ccc(F)c(NC(=O)C4CC4)c3)cc1CC2", "note": "[Compound 2015]", "values": [
      {"measurement": "remaining activity at 0.2 µM", "setting": "340 wild-type kinases [1]; 0.2 µM 2015, read-out: BRAF residual activity", "result": 93.9, "unit": "%"},
      {"measurement": "remaining activity at 1 µM", "setting": "340 wild-type kinases [1]; 1 µM 2015, read-out: BRAF residual activity", "result": 104, "unit": "%"},
      {"measurement": "remaining activity at 0.2 µM", "setting": "340 wild-type kinases [1]; BRAF, 0.2 µM, read-out: residual activity", "result": 94, "unit": "%"},
      {"measurement": "remaining activity at 1 µM", "setting": "340 wild-type kinases [1]; BRAF, 1 µM, read-out: residual activity", "result": 104, "unit": "%"},
      {"measurement": "remaining activity at 0.2 µM", "setting": "340 wild-type kinases [2]; 0.2 µM 2015, read-out: MAP3K7/MAP3K7IP1 residual activity", "result": 96.8, "unit": "%"},
      {"measurement": "remaining activity at 1 µM", "setting": "340 wild-type kinases [2]; 1 µM 2015, read-out: MAP3K7/MAP3K7IP1 residual activity", "result": 93.9, "unit": "%"},
      {"measurement": "remaining activity at 1 µM", "setting": "340 wild-type kinases [2]; MAP3K7/MAP3K7IP1, 1 µM, read-out: residual activity", "result": 93.9, "unit": "%"},
      {"measurement": "remaining activity at 0.2 µM", "setting": "340 wild-type kinases [3]; 0.2 µM 2015, read-out: RET residual activity", "result": 105, "unit": "%"},
      {"measurement": "remaining activity at 1 µM", "setting": "340 wild-type kinases [3]; 1 µM 2015, read-out: RET residual activity", "result": 80.3, "unit": "%"},
      {"measurement": "remaining activity at 0.2 µM", "setting": "340 wild-type kinases [3]; RET, 0.2 µM, read-out: residual activity", "result": 105, "unit": "%"},
      {"measurement": "remaining activity at 1 µM", "setting": "340 wild-type kinases [3]; RET, 1 µM, read-out: residual activity", "result": 80.3, "unit": "%"},
      {"measurement": "remaining activity at 0.2 µM", "setting": "340 wild-type kinases [4]; 0.2 µM 2015, read-out: CLK2 residual activity", "result": 110, "unit": "%"},
      {"measurement": "remaining activity at 1 µM", "setting": "340 wild-type kinases [4]; 1 µM 2015, read-out: CLK2 residual activity", "result": 96.8, "unit": "%"},
      {"measurement": "remaining activity at 0.2 µM", "setting": "340 wild-type kinases [4]; CLK2, 0.2 µM, read-out: residual activity", "result": 110, "unit": "%"},
      {"measurement": "remaining activity at 1 µM", "setting": "340 wild-type kinases [4]; CLK2, 1 µM, read-out: residual activity", "result": 96.8, "unit": "%"},
      {"measurement": "remaining activity at 0.2 µM", "setting": "340 wild-type kinases [5]; 0.2 µM 2015, read-out: EPHA7 residual activity", "result": 126, "unit": "%"},
      {"measurement": "remaining activity at 1 µM", "setting": "340 wild-type kinases [5]; 1 µM 2015, read-out: EPHA7 residual activity", "result": 106, "unit": "%"},
      {"measurement": "remaining activity at 0.2 µM", "setting": "340 wild-type kinases [5]; EPHA7, 0.2 µM, read-out: residual activity", "result": 126, "unit": "%"},
      {"measurement": "remaining activity at 1 µM", "setting": "340 wild-type kinases [5]; EPHA7, 1 µM, read-out: residual activity", "result": 106, "unit": "%"},
      {"measurement": "remaining activity at 0.2 µM", "setting": "340 wild-type kinases [6]; 0.2 µM 2015, read-out: INSR residual activity", "result": 99.9, "unit": "%"},
      {"measurement": "remaining activity at 1 µM", "setting": "340 wild-type kinases [6]; 1 µM 2015, read-out: INSR residual activity", "result": 99.3, "unit": "%"},
      {"measurement": "remaining activity at 0.2 µM", "setting": "340 wild-type kinases [6]; INSR, 0.2 µM, read-out: residual activity", "result": 99.9, "unit": "%"},
      {"measurement": "remaining activity at 1 µM", "setting": "340 wild-type kinases [6]; INSR, 1 µM, read-out: residual activity", "result": 99.3, "unit": "%"},
      {"measurement": "remaining activity at 0.2 µM", "setting": "340 wild-type kinases [7]; 0.2 µM 2015, read-out: SGK3 residual activity", "result": 107, "unit": "%"},
      {"measurement": "remaining activity at 1 µM", "setting": "340 wild-type kinases [7]; 1 µM 2015, read-out: SGK3 residual activity", "result": 92.1, "unit": "%"},
      {"measurement": "remaining activity at 0.2 µM", "setting": "340 wild-type kinases [7]; SGK3, 0.2 µM, read-out: residual activity", "result": 107, "unit": "%"},
      {"measurement": "remaining activity at 1 µM", "setting": "340 wild-type kinases [7]; SGK3, 1 µM, read-out: residual activity", "result": 92, "unit": "%"},
      {"measurement": "remaining activity at 0.2 µM", "setting": "340 wild-type kinases [8]; 0.2 µM 2015, read-out: MEKK2 residual activity", "result": 96.7, "unit": "%"},
      {"measurement": "remaining activity at 1 µM", "setting": "340 wild-type kinases [8]; 1 µM 2015, read-out: MEKK2 residual activity", "result": 95.1, "unit": "%"},
      {"measurement": "remaining activity at 0.2 µM", "setting": "340 wild-type kinases [8]; MEKK2, 0.2 µM, read-out: residual activity", "result": 96.7, "unit": "%"},
      {"measurement": "remaining activity at 1 µM", "setting": "340 wild-type kinases [8]; MEKK2, 1 µM, read-out: residual activity", "result": 95.1, "unit": "%"},
      {"measurement": "remaining activity at 0.2 µM", "setting": "340 wild-type kinases [9]; 0.2 µM 2015, read-out: RIPK2 residual activity", "result": 73.7, "unit": "%"},
      {"measurement": "remaining activity at 1 µM", "setting": "340 wild-type kinases [9]; 1 µM 2015, read-out: RIPK2 residual activity", "result": 120, "unit": "%"},
      {"measurement": "remaining activity at 0.2 µM", "setting": "340 wild-type kinases [9]; RIPK2, 0.2 µM, read-out: residual activity", "result": 73.7, "unit": "%"},
      {"measurement": "remaining activity at 1 µM", "setting": "340 wild-type kinases [9]; RIPK2, 1 µM, read-out: residual activity", "result": 120, "unit": "%"},
      {"measurement": "remaining activity at 0.2 µM", "setting": "340 wild-type kinases [10]; 0.2 µM 2015, read-out: CDK7/CycH/MAT1 residual activity", "result": 94, "unit": "%"},
      {"measurement": "remaining activity at 1 µM", "setting": "340 wild-type kinases [10]; 1 µM 2015, read-out: CDK7/CycH/MAT1 residual activity", "result": 91.1, "unit": "%"},
      {"measurement": "remaining activity at 0.2 µM", "setting": "340 wild-type kinases [10]; CDK7/CycH/MAT1, 0.2 µM, read-out: residual activity", "result": 94, "unit": "%"},
      {"measurement": "remaining activity at 1 µM", "setting": "340 wild-type kinases [10]; CDK7/CycH/MAT1, 1 µM, read-out: residual activity", "result": 91.2, "unit": "%"}
    ]}
  ]
}
